Patent US10449547B2, “Preparation of a powdery pharmaceutical composition by means of cryo-milling” (GRÜNENTHAL GMBH, priority 2013, dated 2019)

Assay: Relative alpha-tocopherol content within blend before and after cryo-milling
Assay type: physicochemical
Source text: Relative Alpha-Tocopherol Content within Blend Before and after Cryo-Milling: […]

Cc1c(C)c2c(c(C)c1O)CC[C@@](C)(CCC[C@H](C)CCC[C@H](C)CCCC(C)C)O2 [alpha-tocopherol]
degradation of alpha-tocopherol with cryo-milling process: did not degrade
